# Source: PubChem BioAssay (NCI)
#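 Test compounds were applied to cells in 96-well plates for 48 hours at 5 doses. GI50 is the concentration that inhibits growth by half. Definition used: TGI = concentration required for complete inhibition of growth.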
# How the values were obtained:
# Assay in all cases: DTP human tumour cell line panel, 48 h
# 786-0 renal = tested on: 786-0 renal
# A498 renal = tested on: A498 renal
# A549 NSCLC = tested on: A549 NSCLC
# ACHN renal = tested on: ACHN renal
# BT-549 breast = tested on: BT-549 breast
# CAKI-1 renal = tested on: CAKI-1 renal
# CCRF-CEM leukemia = tested on: CCRF-CEM leukemia
# COLO 205 colon = tested on: COLO 205 colon
# DU-145 prostate = tested on: DU-145 prostate
# HCC-2998 colon = tested on: HCC-2998 colon
# HCT-116 colon = tested on: HCT-116 colon
# HCT-15 colon = tested on: HCT-15 colon
# HL-60(TB) leukemia = tested on: HL-60(TB) leukemia
# HOP-62 NSCLC = tested on: HOP-62 NSCLC
# HOP-92 NSCLC = tested on: HOP-92 NSCLC
# HS 578T breast = tested on: HS 578T breast
# HT29 colon = tested on: HT29 colon
# IGROV1 ovarian = tested on: IGROV1 ovarian
# K-562 leukemia = tested on: K-562 leukemia
# KM12 colon = tested on: KM12 colon
# LOX IMVI melanoma = tested on: LOX IMVI melanoma
# M14 melanoma = tested on: M14 melanoma
# MALME-3M melanoma = tested on: MALME-3M melanoma
# MCF7 breast = tested on: MCF7 breast
# MDA-MB-231 breast = tested on: MDA-MB-231 breast
# MDA-MB-435 = tested on: MDA-MB-435
# MOLT-4 leukemia = tested on: MOLT-4 leukemia
# NCI-H226 lung = tested on: NCI-H226 lung
# NCI-H23 lung = tested on: NCI-H23 lung
# NCI-H460 lung = tested on: NCI-H460 lung
# NCI-H522 lung = tested on: NCI-H522 lung
# NCI/ADR-RES ovarian = tested on: NCI/ADR-RES ovarian
# OVCAR-3 ovarian = tested on: OVCAR-3 ovarian
# OVCAR-4 ovarian = tested on: OVCAR-4 ovarian
# OVCAR-5 ovarian = tested on: OVCAR-5 ovarian
# OVCAR-8 ovarian = tested on: OVCAR-8 ovarian
# PC-3 prostate = tested on: PC-3 prostate
# RPMI-8226 leukemia = tested on: RPMI-8226 leukemia
# RXF 393 renal = tested on: RXF 393 renal
# SF-268 CNS = tested on: SF-268 CNS
# SF-295 CNS = tested on: SF-295 CNS
# SF-539 CNS = tested on: SF-539 CNS
# SK-MEL-2 melanoma = tested on: SK-MEL-2 melanoma
# SK-MEL-28 melanoma = tested on: SK-MEL-28 melanoma
# SK-MEL-5 melanoma = tested on: SK-MEL-5 melanoma
# SK-OV-3 ovarian = tested on: SK-OV-3 ovarian
# SN12C renal = tested on: SN12C renal
# SNB-19 CNS = tested on: SNB-19 CNS
# SNB-75 CNS = tested on: SNB-75 CNS
# SR leukemia = tested on: SR leukemia
# SW-620 colon = tested on: SW-620 colon
# T-47D breast = tested on: T-47D breast
# TK-10 renal = tested on: TK-10 renal
# U251 CNS = tested on: U251 CNS
# UACC-257 melanoma = tested on: UACC-257 melanoma
# UACC-62 melanoma = tested on: UACC-62 melanoma
# UO-31 renal = tested on: UO-31 renal
compound,measurement,setting,value
OCC1OC(n2ccc3c2ncn2ncnc32)C(O)C1O (centres undefined),GI50,786-0 renal,2.47 µM
same,TGI,786-0 renal,> 100 µM
same,GI50,A498 renal,0.205 µM
same,TGI,A498 renal,2.37 µM
same,GI50,A549 NSCLC,4.91 µM
same,TGI,A549 NSCLC,> 100 µM
same,GI50,ACHN renal,0.719 µM
same,TGI,ACHN renal,> 100 µM
same,GI50,BT-549 breast,1.23 µM
same,TGI,BT-549 breast,25.2 µM
same,GI50,CAKI-1 renal,2.67 µM
same,TGI,CAKI-1 renal,> 100 µM
same,GI50,CCRF-CEM leukemia,0.596 µM
same,TGI,CCRF-CEM leukemia,> 100 µM
same,GI50,COLO 205 colon,2.77 µM
same,TGI,COLO 205 colon,19.1 µM
same,GI50,DU-145 prostate,0.379 µM
same,TGI,DU-145 prostate,> 100 µM
same,GI50,HCC-2998 colon,3.09 µM
same,TGI,HCC-2998 colon,> 100 µM
same,GI50,HCT-116 colon,1.38 µM
same,TGI,HCT-116 colon,> 100 µM
same,GI50,HCT-15 colon,0.47 µM
same,TGI,HCT-15 colon,> 100 µM
same,GI50,HL-60(TB) leukemia,0.854 µM
same,TGI,HL-60(TB) leukemia,5.5 µM
same,GI50,HOP-62 NSCLC,0.595 µM
same,TGI,HOP-62 NSCLC,33.1 µM
same,GI50,HOP-92 NSCLC,0.253 µM
same,TGI,HOP-92 NSCLC,9.22 µM
same,GI50,HS 578T breast,6.46 µM
same,TGI,HS 578T breast,85.9 µM
same,GI50,HT29 colon,0.444 µM
same,TGI,HT29 colon,> 100 µM
same,GI50,IGROV1 ovarian,3.73 µM
same,TGI,IGROV1 ovarian,> 47.4 µM
same,GI50,K-562 leukemia,2.07 µM
same,TGI,K-562 leukemia,> 100 µM
same,GI50,KM12 colon,2.42 µM
same,TGI,KM12 colon,> 100 µM
same,GI50,LOX IMVI melanoma,0.29 µM
same,TGI,LOX IMVI melanoma,1.76 µM
same,GI50,M14 melanoma,5.65 µM
same,TGI,M14 melanoma,> 100 µM
same,GI50,MALME-3M melanoma,29 µM
same,TGI,MALME-3M melanoma,> 100 µM
same,GI50,MCF7 breast,0.183 µM
same,TGI,MCF7 breast,20.4 µM
same,GI50,MDA-MB-231 breast,1.52 µM
same,TGI,MDA-MB-231 breast,> 100 µM
same,GI50,MDA-MB-435,6.5 µM
same,TGI,MDA-MB-435,> 100 µM
same,GI50,MOLT-4 leukemia,0.407 µM
same,TGI,MOLT-4 leukemia,> 43.1 µM
same,GI50,NCI-H226 lung,1.59 µM
same,TGI,NCI-H226 lung,> 100 µM
same,GI50,NCI-H23 lung,1.4 µM
same,TGI,NCI-H23 lung,> 100 µM
same,GI50,NCI-H460 lung,2.25 µM
same,TGI,NCI-H460 lung,> 100 µM
same,GI50,NCI-H522 lung,90.4 µM
same,TGI,NCI-H522 lung,> 100 µM
same,GI50,NCI/ADR-RES ovarian,0.712 µM
same,TGI,NCI/ADR-RES ovarian,63.7 µM
same,GI50,OVCAR-3 ovarian,0.552 µM
same,TGI,OVCAR-3 ovarian,> 100 µM
same,GI50,OVCAR-4 ovarian,5.1 µM
same,TGI,OVCAR-4 ovarian,63.1 µM
same,GI50,OVCAR-5 ovarian,1.19 µM
same,TGI,OVCAR-5 ovarian,> 100 µM
same,GI50,OVCAR-8 ovarian,0.392 µM
same,TGI,OVCAR-8 ovarian,5.68 µM
same,GI50,PC-3 prostate,0.459 µM
same,TGI,PC-3 prostate,22.8 µM
same,GI50,RPMI-8226 leukemia,6.62 µM
same,TGI,RPMI-8226 leukemia,> 100 µM
same,GI50,RXF 393 renal,0.989 µM
same,TGI,RXF 393 renal,13.8 µM
same,GI50,SF-268 CNS,6.83 µM
same,TGI,SF-268 CNS,> 100 µM
same,GI50,SF-295 CNS,1.13 µM
same,TGI,SF-295 CNS,> 59.8 µM
same,GI50,SF-539 CNS,2.13 µM
same,TGI,SF-539 CNS,57.3 µM
same,GI50,SK-MEL-2 melanoma,46.2 µM
same,TGI,SK-MEL-2 melanoma,> 100 µM
same,GI50,SK-MEL-28 melanoma,> 72.9 µM
same,TGI,SK-MEL-28 melanoma,> 100 µM
same,GI50,SK-MEL-5 melanoma,12 µM
same,TGI,SK-MEL-5 melanoma,50.1 µM
same,GI50,SK-OV-3 ovarian,2.08 µM
same,TGI,SK-OV-3 ovarian,> 49.2 µM
same,GI50,SN12C renal,0.6 µM
same,TGI,SN12C renal,> 100 µM
same,GI50,SNB-19 CNS,4.7 µM
same,TGI,SNB-19 CNS,> 100 µM
same,GI50,SNB-75 CNS,4.2 µM
same,TGI,SNB-75 CNS,68.7 µM
same,GI50,SR leukemia,2.96 µM
same,TGI,SR leukemia,> 68.8 µM
same,GI50,SW-620 colon,0.528 µM
same,TGI,SW-620 colon,> 100 µM
same,GI50,T-47D breast,0.273 µM
same,TGI,T-47D breast,5.54 µM
same,GI50,TK-10 renal,3.81 µM
same,TGI,TK-10 renal,> 100 µM
same,GI50,U251 CNS,47.7 µM
same,TGI,U251 CNS,> 100 µM
same,GI50,UACC-257 melanoma,> 70.4 µM
same,TGI,UACC-257 melanoma,> 100 µM
same,GI50,UACC-62 melanoma,8.42 µM
same,TGI,UACC-62 melanoma,> 100 µM
same,GI50,UO-31 renal,2.74 µM
same,TGI,UO-31 renal,> 100 µM
